Source: ChEMBL document CHEMBL1201862, “PubChem BioAssay data set” (2004)
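Briefly, cells in 96-well plates were exposed to five compound concentrations for 48 h, and endpoints were estimated by linear interpolation. Here, GI50 denotes the concentration required for 50% inhibition of growth.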 Active and inactive are the calls of the source. No stated cut-off is given here; in the data, active = GI50 up to about 1.1 µM and inactive = higher.

Key:
Experiment in all cases: NCI tumour cell line growth inhibition, 48 h
DMS-273 = tested on: DMS-273
SNB-78 = tested on: SNB-78
DMS-114 = tested on: DMS-114
KM-20L2 = tested on: KM-20L2
RXF 631 = tested on: RXF 631
LXFL 529 = tested on: LXFL 529
M19-MEL = tested on: M19-MEL
HOP-18 = tested on: HOP-18
XF498 = tested on: XF498

Measured: GI50

O=C(Nc1cccc2c1C(=O)c1c(NC(=O)c3ccccc3)ccc(Nc3cccc4c3C(=O)c3ccccc3C4=O)c1C2=O)c1ccccc1
inactive: DMS-273 > 100 µM | SNB-78 > 100 µM | DMS-114 > 100 µM | KM-20L2 > 100 µM | RXF 631 > 100 µM | LXFL 529 > 100 µM | M19-MEL > 100 µM | HOP-18 > 100 µM

CSc1nnc(CCC(=O)Nc2c(C)cccc2C)o1
inactive: SNB-78 > 100 µM | DMS-114 > 100 µM | KM-20L2 > 100 µM | RXF 631 > 100 µM | XF498 > 100 µM | LXFL 529 > 100 µM | M19-MEL > 100 µM | HOP-18 > 100 µM

N#C/C(=C\c1ccc(O)cc1O)C(N)=O
inactive: DMS-273 > 100 µM | SNB-78 > 100 µM | KM-20L2 28.2 µM | XF498 34.2 µM | LXFL 529 > 100 µM | M19-MEL > 100 µM

COC(=O)/C=C/C1C(C(=O)OC)C2(C(=O)OC)CCC1(C(=O)OC)N2 (stereo not drawn)
inactive: DMS-273 > 100 µM | SNB-78 > 100 µM | KM-20L2 > 100 µM | RXF 631 > 100 µM | XF498 > 100 µM | LXFL 529 > 100 µM | M19-MEL > 100 µM | HOP-18 96.8 µM

CC(c1cccc2ccccc12)/[N+]([O-])=C/c1ccccc1 (stereo not drawn)
inactive: DMS-273 > 100 µM | DMS-114 > 100 µM | KM-20L2 > 100 µM | RXF 631 > 100 µM | XF498 > 100 µM | LXFL 529 > 100 µM | HOP-18 36.1 µM

COC(=O)[C@@H]1Cc2c([nH]c3ccccc23)[C@H](c2ccccc2)N1
inactive: DMS-273 26.7 µM | DMS-114 32.2 µM | KM-20L2 > 100 µM | LXFL 529 54.5 µM | M19-MEL 41.7 µM | HOP-18 52.1 µM

CC1=C(C(=O)Nc2ccccc2)C(c2ccc(Cl)c(Cl)c2)C(C(=O)Nc2ccccc2)=C(C)N1
inactive: DMS-273 13 µM | SNB-78 17.7 µM | DMS-114 11.2 µM | KM-20L2 14.9 µM | RXF 631 12.4 µM | XF498 16.6 µM | LXFL 529 12.9 µM | M19-MEL 12.9 µM

CCCCCCCCNC(=O)SCCCC
inactive: DMS-273 31.4 µM | KM-20L2 33.3 µM | RXF 631 39.1 µM | XF498 13.8 µM | LXFL 529 38.5 µM | M19-MEL 40.5 µM | HOP-18 31 µM

CC(C)C(=O)/C=C/c1ccccc1
inactive: DMS-273 65.2 µM | SNB-78 33.1 µM | KM-20L2 36.1 µM | XF498 > 100 µM | LXFL 529 > 100 µM | M19-MEL > 100 µM | HOP-18 > 100 µM

CCOC(=O)/C(=C/c1ccc(C#N)cc1)N(CC)CC
inactive: SNB-78 > 100 µM | DMS-114 > 100 µM | RXF 631 > 100 µM | XF498 > 100 µM | LXFL 529 > 100 µM | M19-MEL > 100 µM | HOP-18 63 µM

CCCc1ccc(/N=C\c2cc(OC)c(OC)c(OC)c2)cc1
inactive: DMS-273 > 83.4 µM | SNB-78 > 100 µM | DMS-114 18.7 µM | KM-20L2 > 100 µM | XF498 > 100 µM | LXFL 529 99.3 µM | M19-MEL > 100 µM | HOP-18 > 100 µM

CCC(C(=O)c1ccccc1)C(CCCC(=O)Nc1c(C)cccc1C)N=O (stereo not drawn)
inactive: DMS-273 > 100 µM | SNB-78 > 100 µM | KM-20L2 > 100 µM | RXF 631 > 100 µM | XF498 > 100 µM | LXFL 529 > 100 µM | M19-MEL > 100 µM | HOP-18 > 100 µM

O=C(c1ccc(O)cc1)C1c2c3c(cc(O)c2C(c2ccc(O)cc2)C1c1cc(O)cc(O)c1)OC(c1ccc(O)cc1)C3c1cc2c(cc1O)OC(c1ccc(O)cc1)C2c1cc(O)cc(O)c1 (stereo not drawn)
inactive: DMS-273 > 12.5 µM | DMS-114 > 12.5 µM | KM-20L2 > 12.5 µM | LXFL 529 > 12.5 µM | M19-MEL > 12.5 µM

CN1COc2c(n(C)c(=O)[nH]c2=O)C1
inactive: DMS-273 45.7 µM | SNB-78 > 100 µM | DMS-114 > 61.2 µM | KM-20L2 > 100 µM | XF498 > 100 µM | LXFL 529 > 100 µM | M19-MEL > 100 µM | HOP-18 > 100 µM

COc1ccc2nc(NC(=O)C(=O)C(C#N)c3ccc(Cl)c(Cl)c3)sc2c1 (stereo not drawn)
inactive: DMS-273 > 100 µM | SNB-78 > 100 µM | DMS-114 78.9 µM | KM-20L2 > 100 µM | RXF 631 > 100 µM | XF498 > 100 µM | LXFL 529 > 100 µM | M19-MEL > 100 µM

O=C(/N=N/C(=O)OCc1ccccc1)OCc1ccccc1
inactive: DMS-273 91.6 µM | SNB-78 > 100 µM | DMS-114 34.4 µM | KM-20L2 > 100 µM | RXF 631 > 100 µM | XF498 > 100 µM | LXFL 529 68.2 µM | M19-MEL > 100 µM | HOP-18 > 100 µM
